Three compounds from the NIST ThermoML archive (doi:10.1021/je3012925) can be followed below.

The conditions of data set [1]: Liquid; for mass density: 293.15 K, 101.33 kPa, Vibrating tube method; for Normal boiling temperature: mercury-in-glass thermometers.
Data set [2] can be described thus: refractive index (Na D-line) (dimensionless). The settings on record: 293.15 K; 101.33 kPa; Liquid; Standard Abbe refractometry.

± gives the expanded uncertainty stated by the source.

`CN(C)C=O` [dimethylformamide]: in data set [1], the mass density (commonly mass per unit of volume) was determined as 942.6 ± 0.3 kg/m3 and the Normal boiling temperature stood at 153.06 ± 0.2 °C. In addition, in data set [2], the refractive index (usually the speed of light in vacuum divided by its phase velocity in the sample) stood at 1.4328 ± 0.0007.
With `CCC(C)CO` (centres undefined) [2-methyl-1-butanol], in data set [1], the mass density worked out at 817.6 ± 0.2 kg/m3 and the Normal boiling temperature came out at 128.12 ± 0.2 °C. The refractive index in data set [2] was found to be 1.4096 ± 0.0007.
With `CCC(C)COC(C)=O` (centres undefined) [2-methylbutyl ethanoate], in data set [1], the mass density was 873.5 ± 0.3 kg/m3 and the Normal boiling temperature was 138.23 ± 0.2 °C. Besides, in data set [2], the refractive index is given as 1.4034 ± 0.0007.
